Measured values: patent US9856256B2, “Pyridino[1,2-A]pyrimidone analogue used as P13K inhibitor” (CHIA TAI TIANQING PHARMACEUTICAL GROUP CO., LTD., priority 2014, dated 2018)

Columns and labels:
[1] = biological target: T1, mTOR (Homo sapiens, UniProt P42345); assay: In vitro enzyme activity assay, mTOR kinase (32P-ATP, P81 filter-binding); format: biochemical; conditions: 4EBPI substrate, 10 μM ATP; read-out: mTOR enzyme activity_IC50
T1 construct: recombinant human mTOR fragment (amino acid 1360-2549, molecular weight=163.9 kDa); GST-tag (N); host or cells: insect cells
Description: mTOR kinase activities of the compounds in all the examples of the present invention were tested via the following method.
Reaction buffer: 20 mM Hepes (pH 7.5), 10 mM MgCl2, 2 mM MnCl2, 1 mM EGTA, 0.02% Brij35, 0.02 mg/mL BSA, 0.1 mM Na3VO4, 2 mM DTT, and 2% DMSO.
Enzyme for reaction: recombinant human mTOR fragment (amino acid 1360-2549, molecular weight=163.9 kDa) with a GST-tag at the N-terminus, which was expressed in insect cells.
Substrate for reaction: recombinant full-length human 4EBPI (molecular weight=13.6 kDa) with a His-tag at the N-terminus, which was expressed in bacteria.
Reaction conditions: […] 4EBPI and 10 μM ATP.
1. adding the reaction substrate and other reaction factors into the freshly prepared reaction buffer;
(§1) 2. adding the kinase into the substrate reaction solution, and mixing gently;
3. transferring the compound dissolved in 100% DMSO into the kinase reaction solution by using Acoustic technique (Echo550; nanoliter rang), and incubating at room temperature for 20 minutes;
4. adding an appropriate concentration of ^32P-ATP into the reaction system;
5. incubating at room temperature for 2 hours;
6. detecting the kinase activity by using P81 filter-binding method.

[2] = tested on: MCF-7 cells; assay: In vitro cell activity assay (MCF-7, insulin stimulation, ELISA-One); format: cell-based; conditions: Homo sapiens, MCF7, compound 2 hours in serum-free media, then 10 μg/ml insulin 30 min
Description: Experimental Steps and Method Comprise:
1. MCF-7 cells were seeded at 2,5000 cells per well in a 96 well tissue culture plate in a complete media containing 10%0/FBS.
3. The cells were treated with 10 μg/ml insulin in serum-free media for 30 min.
4. During waiting period, lysis solution was prepared as below:
a) Enhancer Solution needs to be taken out from the refrigerator to be thawed.
b) Concentrated lysis solution was prepared by diluting Enhancer Solution 10-fold in 5× Lysis Buffer.
c) Lysis solution was prepared by diluting concentrated lysis solution 5-fold with ddH2O.
5. Any media were removed from wells and the wells were rinsed with PBS once quickly.
6. 50 μL of freshly prepared lysis solution were added into each well, with shaking at room temperature for 10 min.
7. After confirming that all cells get detached from wells, the lysis solution together with the cell debris was transferred to 1.5 ml tubes.
8. The tubes were vortexed several times to thoroughly mix the lysis solution and cells, and then, and then the mixture was centrifuged at 12,000 g for 10 min at 4° C.;
9. The desired number of ELISA-One microplate strips was determined. Unused strips were removed from frame and returned to storage pouch and seal. Wells for use in the assay were rinsed with 200 μL ddH2O to remove preservatives prior to use.
10. 50 μL of antibody mixture solution was added into each well. (Antibody mixture solution was prepared by mixing capture antibody reagent and detection antibody reagent equally, avoid vortexing)
11. 25 μL of lysate was added into each well of the ELISA-One microplate. The microplate was covered with adhesive seal and incubated for 1 hour at room temperature on a microplate shaker.
12. Each well was washed with 150 μL 1× wash buffer 3 times. After final wash, any remaining wash buffer was removed from wells. If necessary, leave microplate in 1× Wash Buffer for up to 30 min, until substrate mixture solution has been prepared.
13. The substrate mixture solution should be prepared when used, 100 μL of substrate mixture solution was added into each well, and then the microplate was sealed with tin foil and incubated at room temperature for 10 minutes on a microplate shaker.
14. 10 μL of stop solution was added into each well, and then mixed slightly (5-10 seconds) on a microplate shaker.
15. Corresponding ELISA-One filter set was installed to read the fluorescence signal intensity.

[3] = biological target: T2, PI3K (p110α) (Homo sapiens, UniProt P42336); assay: In vitro enzyme activity assay, PI3K (p110α) kinase, Method I (HTRF); format: biochemical; parameters: recombinant full-length human PI3K p110α subunit; His-tag (N); host or cells: insect cells; conditions: 10 μM PI(4,5)P2 and 10 μM ATP), read-out: PI3K (p110α) enzyme activity_IC50
Description: (§2) PI3K (p110α) kinase activities of the compounds in all the examples of the present invention were tested via the following two methods, respectively.
Reaction buffer: HEPES 50 mM (pH7.0), NaN3 0.02%, BSA 0.01%. Orthovanadate 0.1 mM, and 1% DMSO.
Detection buffer: HEPES 10 mM (pH7.0), BSA 0.02%, KF 0.16 M, and EDTA 4 mM.
Enzymes for reaction: recombinant full-length human PI3K p110α subunit (molecular weight=128.4 kDa) with a His-tag at the N-terminus and unlabeled p85α subunit (molecular weight=83.6 kDa), which were expressed in insect cells.
Substrate for reaction: […] PIP2 substrate (PI(4,5)P2).
Reaction conditions: 10 μM PI(4,5)P2 and 10 μM ATP.
1. preparing the substrate in the freshly prepared reaction buffer;
as §1
3. transferring the compound dissolved in 100% DMSO into the kinase reaction solution by using Acoustic technique (Echo550; nanoliter rang), and incubating at room temperature for 10 minutes;
4. adding an appropriate concentration of ATP into the reaction system,
5. incubating at 30° C. for half an hour;
6. terminating the reaction by adding a stop solution;
7. adding the detection buffer and incubating overnight; and
8. detecting by using homogeneous time-resolved fluorescence (HTRF) method (excitation wavelength of 320 nm, measuring the ratio of the emission wavelength readings at 615 nm and 665 nm).

[4] = biological target: T2, PI3K (p110α); assay: In vitro enzyme activity assay, PI3K (p110α) kinase, Method II (ADP-Glo assay); format: biochemical; parameters: purchased Millipore 14-602-K; conditions: read-out: PI3K (p110α) enzyme activity_IC50
Description: as §2
Dilution of the Compound:
The compound to be tested was diluted with a 3-fold concentration gradient, and 10 concentrations (from 10000 nM to 0.5 nM) were obtained in total.
50 nL of the compound was transferred to a reaction plate (PerkinElmer #6007299) and 3 μL of enzyme/substrate mixture (0.33 nM PI3Kalpha, Millipore #14-602-K/166.5 μM PIP2) was added. After 20 min incubation, 2 uL of ATP solution (100 uM) was added to initiate the reaction. After reacting for 2 hours at room temperature, 5 μL of ADP-Glo reagent was added to terminate the kinase reaction. Then the mixture was incubated at room temperature for 60 min to completely digest the remaining unreacted ATP, 10 uL of kinase detection reagent was added, and after 40 min incubation at room temperature, […] was readed on an Envision. PIP2, ATP, ADP-Glo and the kinase detection reagent were all from ADP-Glo kinase assay kit (Promega #V1792).
IC50 was calculated using standard 4-parameter fit method (Model205, XL-fit, iDBS).

T2 sequence (P42336 whole entry): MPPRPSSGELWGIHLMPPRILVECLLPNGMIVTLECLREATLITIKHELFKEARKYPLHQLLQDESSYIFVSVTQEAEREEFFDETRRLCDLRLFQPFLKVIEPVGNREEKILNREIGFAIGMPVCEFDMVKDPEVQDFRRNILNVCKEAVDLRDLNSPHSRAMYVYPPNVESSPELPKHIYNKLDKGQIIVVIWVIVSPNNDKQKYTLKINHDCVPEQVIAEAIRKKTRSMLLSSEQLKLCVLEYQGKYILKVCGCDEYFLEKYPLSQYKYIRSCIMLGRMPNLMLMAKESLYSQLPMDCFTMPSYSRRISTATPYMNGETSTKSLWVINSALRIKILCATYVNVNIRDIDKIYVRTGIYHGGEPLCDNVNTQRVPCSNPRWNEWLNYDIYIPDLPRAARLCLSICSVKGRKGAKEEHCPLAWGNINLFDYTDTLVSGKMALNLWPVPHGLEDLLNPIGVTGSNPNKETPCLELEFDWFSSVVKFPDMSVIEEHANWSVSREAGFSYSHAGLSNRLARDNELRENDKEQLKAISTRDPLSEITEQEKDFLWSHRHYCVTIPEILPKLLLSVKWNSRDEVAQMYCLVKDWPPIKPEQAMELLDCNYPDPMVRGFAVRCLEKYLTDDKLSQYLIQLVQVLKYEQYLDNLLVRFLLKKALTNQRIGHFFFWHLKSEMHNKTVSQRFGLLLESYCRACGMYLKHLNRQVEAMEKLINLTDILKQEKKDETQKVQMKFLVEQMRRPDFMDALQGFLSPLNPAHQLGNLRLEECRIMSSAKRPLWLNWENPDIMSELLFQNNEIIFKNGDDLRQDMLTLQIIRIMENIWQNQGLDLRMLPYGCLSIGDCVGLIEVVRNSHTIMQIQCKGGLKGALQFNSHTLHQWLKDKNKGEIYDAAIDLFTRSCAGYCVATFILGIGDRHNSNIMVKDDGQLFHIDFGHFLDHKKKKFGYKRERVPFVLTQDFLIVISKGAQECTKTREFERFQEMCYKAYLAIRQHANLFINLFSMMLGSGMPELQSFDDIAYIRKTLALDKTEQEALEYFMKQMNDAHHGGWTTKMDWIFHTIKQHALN
T2 sequence (P27986 whole entry partner): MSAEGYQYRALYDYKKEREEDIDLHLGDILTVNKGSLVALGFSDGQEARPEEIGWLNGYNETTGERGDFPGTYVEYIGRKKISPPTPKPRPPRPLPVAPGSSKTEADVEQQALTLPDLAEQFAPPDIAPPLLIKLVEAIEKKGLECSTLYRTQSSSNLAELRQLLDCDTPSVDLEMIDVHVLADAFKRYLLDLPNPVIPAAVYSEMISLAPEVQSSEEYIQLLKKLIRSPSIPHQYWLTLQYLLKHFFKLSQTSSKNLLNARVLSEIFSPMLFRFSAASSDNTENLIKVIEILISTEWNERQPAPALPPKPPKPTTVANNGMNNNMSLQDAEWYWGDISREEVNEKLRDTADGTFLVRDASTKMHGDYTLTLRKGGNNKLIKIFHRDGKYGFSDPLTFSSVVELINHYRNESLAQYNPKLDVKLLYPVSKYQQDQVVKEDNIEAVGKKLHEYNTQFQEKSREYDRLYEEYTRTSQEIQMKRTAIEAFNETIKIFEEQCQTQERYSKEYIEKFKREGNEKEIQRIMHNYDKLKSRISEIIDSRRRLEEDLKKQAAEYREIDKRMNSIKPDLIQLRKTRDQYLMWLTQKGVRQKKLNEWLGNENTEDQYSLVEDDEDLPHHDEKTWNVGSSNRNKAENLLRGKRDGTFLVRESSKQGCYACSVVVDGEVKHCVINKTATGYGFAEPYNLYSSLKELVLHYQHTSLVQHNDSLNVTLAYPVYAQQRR
T1 sequence (P42345 1360-2549): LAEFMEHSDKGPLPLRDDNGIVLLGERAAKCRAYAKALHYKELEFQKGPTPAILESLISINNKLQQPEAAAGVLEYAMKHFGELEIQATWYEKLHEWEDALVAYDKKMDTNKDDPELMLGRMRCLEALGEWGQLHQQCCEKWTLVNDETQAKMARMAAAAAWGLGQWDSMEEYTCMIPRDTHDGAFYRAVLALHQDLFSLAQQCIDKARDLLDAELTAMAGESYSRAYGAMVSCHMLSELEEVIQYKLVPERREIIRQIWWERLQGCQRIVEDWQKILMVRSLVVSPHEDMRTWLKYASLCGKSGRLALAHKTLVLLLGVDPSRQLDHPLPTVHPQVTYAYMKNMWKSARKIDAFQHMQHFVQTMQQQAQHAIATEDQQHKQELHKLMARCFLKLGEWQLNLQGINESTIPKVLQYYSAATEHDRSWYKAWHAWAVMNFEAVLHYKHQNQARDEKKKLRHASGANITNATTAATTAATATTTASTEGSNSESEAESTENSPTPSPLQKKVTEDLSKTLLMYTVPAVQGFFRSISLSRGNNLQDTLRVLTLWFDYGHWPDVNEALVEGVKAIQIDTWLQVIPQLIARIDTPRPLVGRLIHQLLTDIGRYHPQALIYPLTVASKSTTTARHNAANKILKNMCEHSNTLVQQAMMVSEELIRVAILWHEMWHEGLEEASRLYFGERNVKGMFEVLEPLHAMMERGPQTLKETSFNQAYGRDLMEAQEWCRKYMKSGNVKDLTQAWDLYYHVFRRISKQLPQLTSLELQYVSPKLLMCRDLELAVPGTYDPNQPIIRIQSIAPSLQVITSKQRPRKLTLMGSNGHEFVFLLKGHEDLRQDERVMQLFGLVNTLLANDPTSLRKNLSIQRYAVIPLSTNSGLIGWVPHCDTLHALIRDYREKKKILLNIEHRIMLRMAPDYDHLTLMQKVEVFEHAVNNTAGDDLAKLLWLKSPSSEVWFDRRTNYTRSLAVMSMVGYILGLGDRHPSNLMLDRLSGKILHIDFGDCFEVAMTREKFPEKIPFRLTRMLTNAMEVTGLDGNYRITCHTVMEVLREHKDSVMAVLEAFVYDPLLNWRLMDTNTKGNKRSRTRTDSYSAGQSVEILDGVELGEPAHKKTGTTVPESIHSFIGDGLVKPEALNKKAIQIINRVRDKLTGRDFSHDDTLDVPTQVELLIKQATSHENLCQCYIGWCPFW

Structure (SMILES)	IC50 [1]	IC50 [2]	IC50 [3]	IC50 [4]
COc1ncc(-c2ccc3ncc(OCCN4CCC(F)(F)CC4)c(=O)n3c2)cc1NS(=O)(=O)c1sc(C)nc1C [Compound 1, N-(5-(3-(2-(4,4-difluoro-1-piperidinyl)ethoxy)-4-oxo-pyrido[1,2-a]pyrimidin-7-yl]-2-methoxypyridin-3-yl]-2,4-dimethylthiazole-5-sulfonamide]	50 to 200 nM	≤ 50 nM	≤ 1 nM	
COc1ncc(-c2ccc3ncc(OCCN4CCC(F)CC4)c(=O)n3c2)cc1NS(=O)(=O)c1sc(C)nc1C [Compound 2]	50 to 200 nM	≤ 50 nM	≤ 1 nM	
COc1ncc(-c2ccc3ncc(OCCN4CCNCC4)c(=O)n3c2)cc1NS(=O)(=O)c1sc(C)nc1C [Compound 3]	> 200 nM	> 250 nM	≤ 1 nM	
CNCCOc1cnc2ccc(-c3cnc(OC)c(NS(=O)(=O)c4sc(C)nc4C)c3)cn2c1=O [Compound 6]	> 200 nM		≤ 1 nM	
COc1ncc(-c2ccc3ncc(OCCN4CCOCC4)c(=O)n3c2)cc1NS(=O)(=O)c1ccc(C)cc1C [Compound 7, 2,4-Dimethyl-N-(2-methoxy-5-(3-(2-morpholinoethoxy)-4-oxo-4H-pyrido[1,2-a]pyrimidin-4-one-7-yl)pyridin-3-yl)benzenesulfonamide]	> 200 nM	≤ 50 nM	≤ 1 nM	
COc1ncc(-c2ccc3ncc(OCCN4CCOCC4)c(=O)n3c2)cc1NS(=O)(=O)c1ccc(F)cc1C [Compound 8]	> 200 nM	50 to 100 nM	≤ 1 nM	
COc1ncc(-c2ccc3ncc(OCCN4CCOCC4)c(=O)n3c2)cc1NS(=O)(=O)c1ccccc1F [Compound 9]	> 200 nM	100 to 250 nM	≤ 1 nM	
COc1ncc(-c2ccc3ncc(OCCN4CCOCC4)c(=O)n3c2)cc1NS(=O)(=O)c1ccccc1Cl [Compound 10]	> 200 nM	50 to 100 nM	≤ 1 nM	
COc1ncc(-c2ccc3ncc(OCCN4CCOCC4)c(=O)n3c2)cc1NS(=O)(=O)c1ccc(F)cc1Cl [Compound 11]	> 200 nM	≤ 50 nM	≤ 1 nM	
Cc1nc(C)c(S(=O)(=O)Nc2cc(-c3ccc4ncc(OCCN5CCOCC5)c(=O)n4c3)cnc2N)s1 [Compound 12]	50 to 200 nM	> 250 nM	≤ 1 nM	
COc1ncc(-c2ccc3ncc(OCCN4CCOCC4)c(=O)n3c2)cc1NS(=O)(=O)c1ccc(F)cc1F [Compound 13]	> 200 nM		≤ 1 nM	
COc1ncc(-c2ccc3ncc(OCCN4CCOCC4)c(=O)n3c2)cc1NS(=O)(=O)c1ccc(Cl)s1 [Compound 14]	> 200 nM	≤ 50 nM	≤ 1 nM	
COc1ncc(-c2ccc3ncc(OCCN4CCOCC4)c(=O)n3c2)cc1NS(=O)(=O)c1sc(C)nc1C [Compound 15]	50 to 200 nM	≤ 50 nM	≤ 1 nM	
COc1ncc(-c2ccc3ncc(OCCN4CCOCC4)c(=O)n3c2)cc1NS(=O)(=O)c1sc(N)nc1C [Compound 16]	50 to 200 nM	100 to 250 nM	≤ 1 nM	
COc1ncc(-c2ccc3ncc(OCCN(C)C)c(=O)n3c2)cc1NS(=O)(=O)c1ccc(F)cc1Cl [Compound 25]	> 200 nM	≤ 50 nM		≤ 1 nM
COc1ncc(-c2ccc3ncc(OCCN4CCCC4)c(=O)n3c2)cc1NS(=O)(=O)c1ccc(F)cc1Cl [Compound 27]	50 to 200 nM	50 to 100 nM		≤ 1 nM
COc1ncc(-c2ccc3ncc(OCC4(N)CC4)c(=O)n3c2)cc1NS(=O)(=O)c1ccc(F)cc1Cl [Compound 32]	50 to 200 nM	50 to 100 nM		≤ 1 nM
COc1ncc(-c2ccc3ncc(OC4CCNCC4)c(=O)n3c2)cc1NS(=O)(=O)c1ccc(F)cc1F [Compound 41, 2,4-Difluoro-N-(2-methoxy-5-(4-oxo-3-(piperidin-4-yloxy)-4H-pyrido[1,2-a]pyrimidin-7-yl)pyridin-3-yl)benzenesulfonamide]	> 200 nM		1 to 50 nM	
COc1ncc(-c2ccc3ncc(OC4CCNC4)c(=O)n3c2)cc1NS(=O)(=O)c1ccc(F)cc1F (stereo not drawn) [Compound 44]	> 200 nM		≤ 1 nM	
COc1ncc(-c2ccc3ncc(OCCN4CCC(O)CC4)c(=O)n3c2)cc1NS(=O)(=O)c1ccc(F)cc1Cl [Compound 79]		100 to 250 nM		≤ 1 nM
COc1ncc(-c2ccc3ncc(OCCNCCO)c(=O)n3c2)cc1NS(=O)(=O)c1ccc(F)cc1Cl [Compound 81]		> 250 nM		≤ 1 nM
COc1ncc(-c2ccc3ncc(OCCN4CCC(C)(O)CC4)c(=O)n3c2)cc1NS(=O)(=O)c1ccc(F)cc1Cl [Compound 82]		100 to 250 nM		≤ 1 nM
COc1ncc(-c2ccc3ncc(OC4CCN(C)C4)c(=O)n3c2)cc1NS(=O)(=O)c1ccc(F)cc1Cl (stereo not drawn) [Compound 85]		50 to 100 nM		1 to 50 nM
COc1ncc(-c2ccc3ncc(OCCN4CCOCC4C)c(=O)n3c2)cc1NS(=O)(=O)c1ccc(F)cc1Cl (stereo not drawn) [Compound 88]		50 to 100 nM		≤ 1 nM
COc1ncc(-c2ccc3ncc(OCCN4CCOC(C)C4)c(=O)n3c2)cc1NS(=O)(=O)c1ccc(F)cc1Cl (stereo not drawn) [Compound 89]		≤ 50 nM		≤ 1 nM
COc1ncc(-c2ccc3ncc(OCCN4CCN(C(C)=O)CC4)c(=O)n3c2)cc1NS(=O)(=O)c1ccc(F)cc1Cl [Compound 90]		50 to 100 nM		≤ 1 nM
COCCN(CCOc1cnc2ccc(-c3cnc(OC)c(NS(=O)(=O)c4ccc(F)cc4Cl)c3)cn2c1=O)CC(F)(F)F [Compound 95]		≤ 50 nM		1 to 50 nM
